# Data as given in patent US4558142A, “7-Fluoro-prostacyclin analogs” (Hoffmann-La Roche Inc., priority 1982, dated 1985).
# Tested on: platelet aggregation
# Experiment: inhibition of arachidonic acid-induced platelet aggregation in beagle platelet rich plasma (PRP), light transmission
# Type: cell-based
# Conditions: Canis lupus familiaris, arachidonic acid inducer, 37°
# Description: That the prostacyclins of formulas I-A and I-B of this invention are active as anti-blood platelet aggregating agents can be seen from the administration of (5Z,7β,9α,11α,13E,15R)-7-fluoro-6,9-epoxy-11,15-dihydroxy-16,16-dimethyl-prosta-5,13-dien-1-oic acid methyl ester by the following test.
# 30 Ml. of blood was drawn from the jugular vein of a conscious beagle using two 15 ml. Vacutainer tubes, with no additive, connected to a 20 g. 1 inch multiple sample needle. The blood was immediately transferred to a 50 ml. conical plastic centrifuge tube containing 3 ml. of 3.8% sodium citrate (3.8 grams of sodium citrate crystal, Na3 C6 H5 O7.2H2 O, in 100 ml. of distilled water), capped and gently mixed. The citrated blood was centrifuged at 160 g. for 15 minutes at 20° C. The platelet rich plasma (PRP) was carefully withdrawn with a pipette, without disturbing the buffy coat and erythrocyte layers. The PRP was placed in 16×125 mm plastic tubes, capped and stored at room temperature 19°-21° C. PRP preparations showing a tinge of redness, indicative of hemolysis, were discarded. The remaining blood, after the removal of PRP, was recentrifuged at higher speed, 900 g. for 10 minutes, to yield platelet poor plasma (PPP). The PRP was used immediately and the aggregation study completed within three hours after preparation.
# Platelet aggregation was measured with a Payton duel channel aggregation module connected to a duel pen recorder for the continuous recording of the increase in light transmission due to clumping of platelets. The 0-100% transmission scale was set with PRP (0%) and PPP (100%). The temperature was set at 37° and the stirring speed at 900 rpm. 0.45 Ml. of PRP was added to a cuvette containing a teflon coating stirring bar and prewarmed at 37° in a water bath. 5 μl of various concentrations of (5Z,7β,9α,11α,13E,15R)-7-fluoro-6,9-epoxy-11,15-dihydroxy-16,16-dimethyl-prosta-5,13-dien-1-oic acid methyl ester, diluted from a stock solution of 5×10^-4 M in DMSO (dimethylsulfoxide) with phosphate buffered saline containing 1 mg/ml. of bovine serum albumin, fraction V, was added and stirred for 1 minute. The inducer of aggregation, arachidonic acid, at a concentration which will cause 50-70% aggregation after 5 minutes, was then added in 50 μl of solution. The % inhibition, set forth in the following Table, was calculated from the ratio of the % aggregation with (5Z,7β,9α,11α,13E,15R)-7-fluoro-6,9-epoxy-11,15-dihydroxy-16,16-dimethyl-prosta-5,13-dien-1-oic acid methyl ester over that with the vehicle×100.
# The preparation of phosphate buffered saline and arachidonic acid solution used above is as follows: Phosphate buffered saline (PBS) was prepared by adding 1 mM solution of sodium phosphate aqueous buffer, pH 7.4 to 0.85% by weight/volume of an aqueous sodium chloride solution. Arachidonic acid solution was prepared as follows: A stock solution of 10 mg. per ml. in absolute ETOH was prepared and stored in freezer. To make a 10 mM solution, 0.3 ml. of the stock solution was evaporated to near dryness under nitrogen and redissolved in 0.75 ml. of 0.02NH4 OH (freshly prepared) and 0.2 ml. of PBS. Further dilutions of arachidonic acid were made with NH4 OH and PBS mixture.
smiles,measurement,setting,value
"CCCCC(C)(C)[C@H](O)/C=C/[C@@H]1[C@@H]2[C@H](C[C@H]1O)O/C(=C\CCCC(=O)OC)[C@H]2F [(5Z,7β,9α,11α,13E,15R)-7-fluoro-6,9-epoxy-11,15-dihydroxy-16,16-dimethyl-prosta-5,13-dien-1-oic acid methyl ester]",inhibition at 0.0001 µM,concentration 1 × 10^-10 M,20.8%
same,inhibition at 10 pM,concentration 1 × 10^-11 M,57.8%
same,inhibition at 1 pM,concentration 1 × 10^-12 M,71.4%
same,inhibition at 100 fM,concentration 1 × 10^-13 M,14.2%
same,inhibition at 300 fM,concentration 3 × 10^-13 M,20.8%
